Assay results published in US5959145A, “Fatty acid analog enzyme substrates” (priority 1993, dated 1999).
Entries after “also recorded” stand apart in the source; their conditions may differ. No end group written: not given here. *: point of attachment. 11‑(ethylthio)undecanoyl = CCSCCCCCCCCCCC(=O)*; 125I = [125I]*

Experiments:
[1] = C18 reverse phase HPLC elution of fatty acyl peptides (hydrophobicity); assay type: physicochemical; conditions: for elution earlier than corresponding myristoyl-peptide: C-18 reverse phase HPLC, FIG. 2; for Elution Time: C18 reverse phase HPLC, acyl derivative of GNAAS[125I]YRR, Table 2
Experimental: The fatty acid analog acyl-peptide eluted 7 minutes earlier than the corresponding myristoyl peptide. The free peptide elutes in the void volume (3-5minutes).
This difference was evident when the HPLC elution characteristics of fatty acyl peptides were examined. The elution time of a particular acyl-peptide depends strongly on the peptide sequence as well as on the acyl chain attached to that peptide. For example, the elution times of fatty acyl derivatives of GNAAAARR are (in minutes) decanoic acid, 9; dodecanoic acid, 18; myristic acid, 24; and palmitic acid, 30. Elution times for fatty acyl derivatives of GNAAS[^125 I]YRR are 23 and 28 minutes for C12 and C14 fatty acids, respectively (FIG. 2). […] Such a change could alter the biological activity of myristoyl proteins.
(§1) For these Examples, each analog synthesized is characterized by ^1 H and ^13 C NMR as well as mass spectroscopy. The analogs are then characterized kinetically as NMT substrates. Briefly, fatty acid analogs are converted to their CoA esters with Pseudomonas CoA ligase and incubated with the iodinated peptide GNAAS[^125 I]YRR and a source of NMT. […] The radiolabelled peptide is then used at concentrations which will lead to 50% enzyme saturation (i.e., at its Km) for the determination of fatty acid analog kinetic characteristics. Representative analogs with sulfur or oxygen in the backbone of the fatty acid chain serve as good substrates for NMT in vitro and will compete for incorporation of ^3 H labelled myri-state into yeast proteins in vivo. In addition, these analogs differ markedly in hydrophobicity from myri-state as measured both by C18 reverse phase HPLC elution profiles and by 2-octanol/water partition coefficients. The analog CH3 O(CH2)11 COOH, for example, partitions into water 20 fold better than myristate. It is believed that these analogs will be incorporated into mammalian acylproteins in vivo and that their incorporation into these proteins will drastically alter protein processing or targeting. It is further believed that the incorporation of fatty acid analogs of both myristate and palmitate into ester linked and phosphatidyl inositol glycan linked acylproteins will also dramatically alter their properties. Since many viral proteins and oncogenes are acylated, these compounds represent a new class of potential antiviral and antineoplastic agents.

wheat germ NMT = experiment: in vitro myristoylation assay with partially purified wheat germ NMT; assay type: biochemical
Experimental: Myristoyl CoA and fatty acid analog CoA were generated by incubation of the fatty acid or analog with CoA, ATP and CoA ligase. This reaction mixture was added to wheat germ NMT and Gly-Asn-Ala-Ala-Ser- [^125 I]Tyr-Arg-Arg in the presence of 0.03% Triton® X-100. Reaction products were characterized by reverse phase HPLC and gamma counting.
The invention is illustrated in greater detail in the following Examples 1 to 15 by the synthesis and testing of representative compounds of the invention as myristoylating enzyme substrates. Accordingly, the invention is first illustrated in Examples 1 to 5 by the chemical synthesis of a sulfur-containing analog of myristic acid, namely 11-(ethylthio)undecanoicacid, CH3 CH2 --S--(CH2)10 COOH, which is then tested in vitro as a wheat germ NMT substrate. Wheat germ NMT is a protein similar to yeast NMT. The purity and chemical identity of the synthesized compound were examined using ^1 H and ^13 C NMR as well as mass spectroscopy. The assay that was used to characterize the substrate specificity of wheat germ NMT measures the rate of attachment of a radiolabelled fatty acid to an unlabelled peptide. The fatty acid analog synthesized was nonradioactive.
Characterization of Partially Purified Wheat Germ NMT--Assays for NMT activity were performed using a procedure detailed previously by Towler and Glaser, Proc. Natl. Acad. Sci. USA 83, 2812-2816 (1986). Briefly, the in vitro assay measures the transfer of radiolabelled fatty acid from acyl CoA to a synthetic peptide substrate. The acylpeptide product is identified by reverse phase HPLC. Time and enzyme dependence were evaluated by varying the reaction time or the enzyme concentration. […] Fatty acid specificity was examined essentially as described by Towler et al., J. Biol. Chem. 262, 1030-1036 (1987), except that the peptide Gly-Ser-Ser-Lys-Ser-Lys-Pro-Lys rather than Gly-Asn-Ala-Ala-Ala-Ala-Arg-Arg was used to compare palmitate and myristate utilization by wheat germ NMT. This was necessary because of the presence of a large, peptide-independent peak which co-eluted with a palmitoyl-Gly-Asn-Ala-Ala-Ala-Ala-Arg-Arg standard. [^3 H]Palmitate and [^3 H]myristate were used in this comparison. [^14 C]fatty acids were used to compare C-10, C-12 and C-14 chain lengths. Fatty acyl CoA concentrations in these assays were determined by a modification of the method of Hosaka et al., Methods Enzymol. 71, 325-333 (1981).
Characterization of the Fatty Acid Analog--Gly-Asn-Ala-Ala-Ser-[^125 I]Tyr-Arg-Arg as prepared in Example 2, above, was tested in an in vitro myristoylation system which was modified from that used with radiolabelled fatty acids. […] 20-fold more wheat germ NMT (480-fold purified as in Example 3, above) was used for these assays than for assays which employed [^3 H] myristate. […] Double reciprocal plots were generated for the iodinated peptide with both myristic acid and the sulfur analog by altering the peptide concentration in the presence of a constant amount of fatty acid or analog. […] The assays contained 0.03% Triton X-100 to maintain the solubility of the fatty acids.

yeast NMT = molecular target: T1, yeast NMT (Saccharomyces cerevisiae, UniProt P14743); experiment: kinetic characterisation of fatty acid analogs as yeast NMT substrates; assay type: biochemical; conditions: for Peptide Vm: peptide GNAAS[125I]YRR varied, fatty acid analog at 15 μM; for Peptide Vm / Acyl CoA Vm: myristate control = 100%; for Acyl CoA Vm / Km: radiolabelled peptide at its Km, analog varied; for Km: read-out: Acyl CoA Km
T1 construct: 11,000-fold purified preparation of yeast NMT; endogenous in cells; host or cells: yeast (enzyme purified from yeast, 11,000-fold)
T1 sequence (P14743 1-455): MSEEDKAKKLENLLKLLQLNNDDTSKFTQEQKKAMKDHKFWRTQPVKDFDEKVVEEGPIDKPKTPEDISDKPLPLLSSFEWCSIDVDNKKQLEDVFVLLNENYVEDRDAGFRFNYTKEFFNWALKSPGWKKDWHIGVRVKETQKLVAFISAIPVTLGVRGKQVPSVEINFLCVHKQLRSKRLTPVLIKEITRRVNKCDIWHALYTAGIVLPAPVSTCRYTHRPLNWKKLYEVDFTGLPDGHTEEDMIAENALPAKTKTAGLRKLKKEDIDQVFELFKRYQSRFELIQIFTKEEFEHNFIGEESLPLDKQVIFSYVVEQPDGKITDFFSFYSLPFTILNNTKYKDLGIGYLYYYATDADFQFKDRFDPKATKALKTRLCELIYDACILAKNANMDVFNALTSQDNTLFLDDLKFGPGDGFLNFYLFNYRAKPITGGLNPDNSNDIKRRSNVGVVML
Text: Similar results were obtained using an 11,000-fold purified preparation of yeast NMT [Towler et al., Proc. Natl. Acad. Sci. USA 84, 2708-2712 (1987)].
Other illustrative examples of the oxy- and thio-substituted fatty acid analog substrate compounds of the invention were synthesized in Examples 6 to 14 and tested in Example 15 as substrates for the yeast NMT.
as §1

[2] = CoA ester, 40 μM iodinated peptide, 0.03% Triton X-100, FIG. 1

Row | Compound | Elution Time [1] [min] | Peptide Vm (yeast NMT) [%] | Acyl CoA Vm (yeast NMT) [%] | Km (yeast NMT) [µM] | also measured
1 | 11-(ethylthio)undecanoyl-GNAAS[^125 I]YRR ({11‑(ethylthio)undecanoyl}-GNAASY(125I)RR) [fatty acid analog acyl-peptide formed by NMT from compound A and iodinated peptide GNAASYRR] | – | – | – | – | elution earlier than corresponding myristoyl-peptide [1]: seven; elution earlier than corresponding myristoyl-peptide ([1]; listed as 11-(ethylthio)undecanoyl-GNAASYRR[^125 I]): 7 min
2 | CCSCCCCCCCCCCC(=O)O [A, 11-(Ethylthio)undecanoic acid] | 18 | 98 | 130 | 1.4 | Km for the analog relative to myristate (wheat germ NMT; [2]): 1.5 times higher; Vmax for the analog relative to myristate (wheat germ NMT; [2]): 3.5 times higher; Km (wheat germ NMT; fatty acid or analog at 5 μM, peptide varied, read-out: Km of peptide substrate Gly-Asn-Ala-Ala-Ser-[125I]Tyr-Arg-Arg): 7 µM; ability to act as a substrate for myristoyl CoA: protein N-myristoyl transferase (NMT) (wheat germ NMT; in words): leaves intact; substrate quality of CoA ester for wheat germ NMT compared with myristoyl CoA (wheat germ NMT; in words): at least as good a substrate; apparent maximal velocity relative to myristic acid (wheat germ NMT; peptide varied, fatty acid or analog at 5 μM): 2.3 times higher; hydrophobicity compared with myristic acid, in words [1]: decreases its hydrophobicity; also recorded: significantly different; Km compared with C14:0 fatty acid (yeast NMT; 11,000-fold purified yeast NMT): indistinguishable; Vmax compared with C14:0 fatty acid (yeast NMT; 11,000-fold purified yeast NMT): indistinguishable
3 | CCOCCCCCCCCCCC(=O)O [B, 11-(Ethoxy)undecanoic acid] | 12 | 62 | 64 | 1.8 | –
4 | CCCCCCCCSCCCCC(=O)O [C, 5-(Octylthio)pentanoic acid] | 24 | 213 | 160 | 1.5 | –
5 | CCCCOCCCCCCCCCCC(=O)O [Compound I, 11-(1-Butoxy)undecanoic acid] | 19 | 25 | 80 | 1 | effectiveness as NMT substrate, in words (yeast NMT): less effective
6 | COCCCCCCCCCCC(=O)O [D, 11-(Methoxy)undecanoic acid] | 12 to 13 | 232 | 163 | 6.9 | –
7 | CCCCCCCCOCCCCC(=O)O [F, 5-(octyloxy)pentanoic acid] | 16 | 335 | 675 | 1.6 | –
8 | CCCSCCCCCCCCCC(=O)O [G, 10-(Propylthio)decanoic acid] | 18 | 245 | 250 | 1.5 | –
9 | CCCOCCCCCCCCCC(=O)O [H, 10-(Propoxy)decanoic acid] | 11 to 12 | 150 | 250 | 6.1 | –
10 | C#CCOCCCCCCCCCC(=O)O [J, 10-(2-Propynoxy)decanoic acid] | 9 | 200 | 320 | 6.5 | –
11 | CCCCCCCCCC(=O)O [decanoic acid, reference compound] | – | – | – | – | elution time of fatty acyl derivative of GNAAAARR ([1]; reverse phase HPLC): 9 min
12 | CCCCCCCCCCCC(=O)O [dodecanoic acid, reference compound] | – | – | – | – | elution time of fatty acyl derivative of GNAAAARR ([1]; reverse phase HPLC): 18 min; elution time of fatty acyl derivative of GNAAS[125I]YRR ([1]; reverse phase HPLC, FIG. 2, text): 23 min
13 | CCCCCCCCCCCCCCCC(=O)O [palmitic acid, reference compound] | – | – | – | – | elution time of fatty acyl derivative of GNAAAARR ([1]; reverse phase HPLC): 30 min
